Data: patent US10533006B2, “Nitrogen-containing heterocycle and carbocycle derivatives having TrkA inhibitory activity” (Shionogi & Co., Ltd., priority 2016, dated 2020)

Target: T1, human TrkA (Homo sapiens, UniProt P04629)
T1 construct: purchased Lifetechnologies PV3144
Test: Human TrkA inhibition assay
Assay type: biochemical
Conditions: human TrkA phosphorylation inhibition, ATP 500 μmol/L; read-out: IC50_nM
Description: Seven point five L per well of human TrkA (PV3144, Lifetechnologies, final concentration: 1 nmol/L) suspended in the assay buffer (100 mmol/L 4-(2-hydroxyethyl)-1-piperazineethanesulfonic acid (HEPES), 10 mmol/L magnesium chloride, 0.003 vol % Brij-35, 0.004 vol % Tween20 and 1 mmol/L dithiothreitol (DTT)) was applied in a 384 well plate and the plate was pre-incubated for 15 min at room temperature with 0.4 μL of each compound (final concentration: 200 μmol/L-0.1 nM) dissolved in DMSO. Then, fluorescent substrate (FL-peptide 27, 760424, PerkinElmer, final concentration: 1.5 μmol/L) and ATP (final concentration 500 μmol/L) dissolved in the assay buffer was added in each well. After the incubation of 120 min at 37° C., fifteen μL of termination buffer (100 mmol/L HEPES, 40 mmol/L ethylenediaminetetraacetic acid (EDTA), 10 mmol/L magnesium chloride, 0.003 vol % Brij-35, 0.004 vol % Tween20, 1 mmol/L DTT and 0.16 vol % Coating Reagent 3) was added in each well to stop the enzyme reaction. Fluorescent intensities (FI) of phosphorylated and non-phosphorylated fluorescent substrates were measured by LabChip EZReader II (Caliper LifeSciences, Inc.), and conversion ratio (CR) was calculated by the following formula-1. The CR in the well applied with DMSO alone was used as a negative control and the CR in the well without applying TrkA was used as a positive control. The inhibitory effect of each compound on TrkA phosphorylation was calculated by the following formula-2. CR (%)=(FI of phosphorylated substrate/(FI of phosphorylated substrate+FI of non-phosphorylated substrate))×100 (Formula-1) Phosphorylation inhibition (%)=(1−(CR with compound treatment−CR of positive control)/(CR of negative control−CR of positive control))×100 (Formula-2)
IC50 values (nmol/L) were determined by the logistic regression using the inhibition data in 10 points of 3-fold dilution series at a compound concentration range of 2 μmol/L to 0.1 nmol/L, or 15 points of 3-fold dilution series at the range of 200 μmol/L to 0.04 nmol/L.

T1 sequence (P04629 33-796): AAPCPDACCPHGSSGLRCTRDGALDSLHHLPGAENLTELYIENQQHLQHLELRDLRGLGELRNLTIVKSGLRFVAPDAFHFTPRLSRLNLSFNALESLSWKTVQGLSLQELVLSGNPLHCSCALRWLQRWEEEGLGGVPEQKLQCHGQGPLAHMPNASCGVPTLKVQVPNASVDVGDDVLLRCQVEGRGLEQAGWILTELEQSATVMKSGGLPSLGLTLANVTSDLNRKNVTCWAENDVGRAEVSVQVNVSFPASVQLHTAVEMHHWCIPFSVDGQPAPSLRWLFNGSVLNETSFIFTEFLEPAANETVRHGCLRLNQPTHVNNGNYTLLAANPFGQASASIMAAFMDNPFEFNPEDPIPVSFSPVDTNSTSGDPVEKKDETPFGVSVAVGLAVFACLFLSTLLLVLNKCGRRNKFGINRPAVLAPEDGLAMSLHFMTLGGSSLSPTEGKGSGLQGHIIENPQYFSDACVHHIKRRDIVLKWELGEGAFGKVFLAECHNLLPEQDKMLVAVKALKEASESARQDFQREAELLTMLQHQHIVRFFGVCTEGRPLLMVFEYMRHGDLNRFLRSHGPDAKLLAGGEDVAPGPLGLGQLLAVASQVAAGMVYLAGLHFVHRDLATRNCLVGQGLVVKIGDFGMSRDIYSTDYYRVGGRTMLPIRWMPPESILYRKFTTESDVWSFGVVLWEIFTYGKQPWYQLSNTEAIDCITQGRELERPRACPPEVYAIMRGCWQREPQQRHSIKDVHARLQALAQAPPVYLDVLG

| Compound | IC50 |
| --- | --- |
| COCCN1C[C@@H](NC(=O)Nc2c(C)c(-c3cnc(OC)c(C(=O)NO)c3)nn2-c2ccccc2)[C@H](c2ccccc2)C1 (racemic) [Compound I-138] | < 100 nM |
| CCN1CCC(NC(=O)c2ccc(-c3nn(-c4ccccc4)c(NC(=O)N[C@@H]4C[C@@H](CCOC)N[C@H]4c4ccc(F)c(F)c4)c3C)cc2)CC1 [Compound I-15] | < 100 nM |
| CNC(=O)c1cc(-c2nn(-c3ccccc3)c(NC(=O)N[C@@H]3CN(CCOC)C[C@H]3c3ccccc3)c2C)cnc1OCF (racemic) [Compound I-126] | < 100 nM |
| COCC[C@@H]1C[C@@H](NC(=O)Nc2c(C)c(-c3cnc(N4CC(OC)C4)nc3)nn2-c2ccccc2)[C@H](c2ccnc(F)c2)N1C [Compound I-180] | < 100 nM |
| COCCN1C[C@@H](NC(=O)Nc2c(C)c(-c3ccnc(C(=O)NC4CC(F)(F)C4)c3)nn2-c2ccccc2)[C@H](c2ccccc2)C1 (racemic) [Compound I-70] | < 100 nM |
| COCCN1C[C@@H](NC(=O)Nc2c(C)c(-c3cnc4c(c3)c(N=S(C)(C)=O)nn4C)nn2-c2ccccc2)[C@H](c2ccc(F)c(F)c2)C1 [Compound I-163] | < 100 nM |
| CNC(=O)c1cc(-c2nn(-c3ccccc3)c(NC(=O)N[C@@H]3CN(CCOC)C[C@H]3c3ccccc3)c2C)cnc1OCC(F)F (racemic) [Compound I-125] | < 100 nM |
| COCCN1C[C@@H](NC(=O)Nc2c(C)c(-c3cnc(OC)c(C(=O)NC4CCCCC4)c3)nn2-c2ccccc2)[C@H](c2ccccc2)C1 (racemic) [Compound I-77] | < 100 nM |
| COCCN1C[C@@H](NC(=O)Nc2c(C)c(-c3cnc(OC)c(C(=O)NC4CCS(=O)(=O)CC4)c3)nn2-c2ccccc2)[C@H](c2ccccc2)C1 (racemic) [Compound I-79] | < 100 nM |
| COCCN1C[C@@H](NC(=O)Nc2c(C)c(-c3cnc4nc(C)oc4c3)nn2-c2ccccc2)[C@H](c2ccccc2)C1 (racemic) [Compound I-34] | < 100 nM |
| COCCN1C[C@@H](NC(=O)Nc2c(C)c(-c3ccnc(C(=O)NO)c3)nn2-c2ccccc2)[C@H](c2ccc(F)c(F)c2)C1 [Compound I-155] | < 100 nM |
| COCCN1C[C@@H](NC(=O)Nc2c(C)c(-c3cnc(OCF)c(C(=O)NC4CCOCC4)c3)nn2-c2ccccc2)[C@H](c2ccccc2)C1 (racemic) [Compound I-143] | < 100 nM |
| COCCN1C[C@@H](NC(=O)Nc2c(C)c(-c3ccc(C(=O)NC4CCOCC4)nc3)nn2-c2ccccc2)[C@H](c2ccccc2)C1 (racemic) [Compound I-41] | < 100 nM |
| CCN1CCC(NC(=O)c2ccc(-c3nn(-c4ccccc4)c(NC(=O)N[C@@H]4C[C@@H](CCOC)N(C)[C@H]4c4ccc(F)c(F)c4)c3C)cc2)CC1 [Compound I-25] | < 100 nM |
| COCCN1C[C@@H](NC(=O)Nc2c(C)c(-c3ccnc(C(=O)N[C@H]4CC[C@H](O)CC4)c3)nn2-c2ccccc2)[C@H](c2ccccc2)C1 [Compound I-74] | < 100 nM |
| CCOc1ncc(-c2nn(-c3ccccc3)c(NC(=O)N[C@@H]3CN(CCOC)C[C@H]3c3ccccc3)c2C)cc1C(=O)NC (racemic) [Compound I-122] | < 100 nM |
| COCC[C@@H]1C[C@@H](NC(=O)Nc2c(C)c(-c3cc(C(=O)NOC)c(=O)n(C)c3)nn2-c2ccccc2)[C@H](c2ccccc2)C1 [Compound I-153] | < 100 nM |
| CNC(=O)c1ccc(-c2nn(-c3ccccc3)c(NC(=O)N[C@@H]3CN(CCOC)C[C@H]3c3ccccc3)c2C)cn1 (racemic) [Compound I-35] | < 100 nM |
| COCCN1C[C@@H](NC(=O)Nc2c(C)c(-c3ccnc(C(=O)NC[C@H](C)O)c3)nn2-c2ccccc2)[C@H](c2ccccc2)C1 [Compound I-88] | < 100 nM |
| COCCN1C[C@@H](NC(=O)Nc2c(C)c(-c3cnc4nccnc4c3)nn2-c2ccccc2)[C@H](c2ccccc2)C1 (racemic) [Compound I-135] | < 100 nM |
| COCCN1C[C@@H](NC(=O)Nc2c(C)c(-c3cnc4[nH]c(=O)oc4c3)nn2-c2ccccc2)[C@H](c2ccccc2)C1 (racemic) [Compound I-107] | < 100 nM |
| COCCN1C[C@@H](NC(=O)Nc2c(C)c(-c3cnc(OC)c(C(=O)NC[C@@H](C)O)c3)nn2-c2ccccc2)[C@H](c2ccccc2)C1 [Compound I-82] | < 100 nM |

| Compound | IC50 |
| --- | --- |
| COCCN1C[C@@H](NC(=O)Nc2c(C)c(-c3ccc(N=S(C)(C)=O)nc3)nn2-c2ccccc2)[C@H](c2ccccc2)C1 (racemic) [Compound I-91] | < 100 nM |
| COCCN1C[C@@H](NC(=O)Nc2c(C)c(-c3cnc(OCCO)nc3)nn2-c2ccccc2)[C@H](c2ccccc2)C1 (racemic) [Compound I-31] | < 100 nM |
| COCCN1C[C@@H](NC(=O)Nc2c(C)c(N3CCc4c(cnn4C)C3)nn2-c2ccccc2)[C@H](c2ccccc2)C1 [Compound I-58] | < 100 nM |
| COCC[C@@H]1C[C@@H](NC(=O)Nc2c(C)c(-c3cnc(OC)nc3)nn2-c2ccccc2)[C@H](c2ccnc(F)c2)C1 [Compound I-165] | < 100 nM |
| COCCN1C[C@@H](NC(=O)Nc2c(C)c(-c3cnn(C)c3)nn2-c2ccccc2)[C@H](c2ccnc(F)c2)C1 (racemic) [Compound I-2] | < 100 nM |
| COCCN1C[C@@H](NC(=O)Nc2c(C)c(-c3ccnc(C(=O)N[C@H]4CC[C@@H](O)CC4)c3)nn2-c2ccccc2)[C@H](c2ccccc2)C1 [Compound I-85] | < 100 nM |
| COCCN1C[C@@H](NC(=O)Nc2c(C)c(-c3cnc4c(c3)c(OC)nn4C)nn2-c2ccccc2)[C@H](c2ccccc2)C1 (racemic) [Compound I-95] | < 100 nM |
| COCCN1C[C@@H](NC(=O)Nc2c(C)c(-c3cc(C(=O)NC4CC(F)(F)C4)c(=O)n(C)c3)nn2-c2ccccc2)[C@H](c2ccccc2)C1 (racemic) [Compound I-113] | < 100 nM |
| COCCN1C[C@@H](NC(=O)Nc2c(C)c(-c3cnc4c(ccn4C)c3)nn2-c2ccccc2)[C@H](c2ccccc2)C1 (racemic) [Compound I-38] | < 100 nM |
| COCCN1C[C@@H](NC(=O)Nc2c(C)c(-c3ccnc(C(=O)NO)c3)nn2-c2ccccc2)[C@H](c2ccccc2)C1 (racemic) [Compound I-63] | < 100 nM |
| CNC(=O)c1cc(-c2nn(-c3ccccc3)c(NC(=O)N[C@@H]3C[C@@H](CCOC)C[C@H]3c3ccccc3)c2C)cnc1OC [Compound I-144] | < 100 nM |
| COCCN1C[C@@H](NC(=O)Nc2c(C)c(-c3cnc(OCC(F)F)c(C(=O)NC4CCOCC4)c3)nn2-c2ccccc2)[C@H](c2ccccc2)C1 (racemic) [Compound I-142] | < 100 nM |
| COCCN1C[C@@H](NC(=O)Nc2c(C)c(-c3cc(C(=O)NC4CCCCC4)c(=O)n(C)c3)nn2-c2ccccc2)[C@H](c2ccccc2)C1 (racemic) [Compound I-108] | < 100 nM |
| CCNC(=O)c1cc(-c2nn(-c3ccccc3)c(NC(=O)N[C@@H]3CN(CCOC)C[C@H]3c3ccccc3)c2C)cn(C)c1=O (racemic) [Compound I-54] | < 100 nM |
| CNS(=O)(=O)c1cc(-c2nn(-c3ccccc3)c(NC(=O)N[C@@H]3C[C@@H](CCOC)C[C@H]3c3ccccc3)c2C)cn(C)c1=O [Compound I-148] | < 100 nM |
| COCCN1C[C@@H](NC(=O)Nc2c(C)c(-c3cc(C(=O)N[C@@H]4CCOC4)c(=O)n(C)c3)nn2-c2ccccc2)[C@H](c2ccccc2)C1 (racemic) [Compound I-112] | < 100 nM |
| COCCN1C[C@@H](NC(=O)Nc2c(C)c(-c3cnc(OC)c(C(=O)NS(C)(=O)=O)c3)nn2-c2ccccc2)[C@H](c2ccccc2)C1 (racemic) [Compound I-147] | < 100 nM |
| COCC[C@@H]1C[C@@H](NC(=O)Nc2c(C)c(-c3ccc(=O)[nH]c3)nn2-c2ccccc2)[C@H](c2ccccc2)C1 [Compound I-23] | < 100 nM |
| CNC(=O)c1cc(-c2nn(-c3ccccc3)c(NC(=O)N[C@@H]3CN(CCOC)C[C@H]3c3ccccc3)c2C)ccn1 (racemic) [Compound I-45] | < 100 nM |
| COCCN1C[C@@H](NC(=O)Nc2c(C)c(-c3ccc(C(=O)N(C)C)nc3)nn2-c2ccccc2)[C@H](c2ccccc2)C1 (racemic) [Compound I-36] | < 100 nM |
| COCC[C@@H]1C[C@@H](NC(=O)Nc2c(C)c(-c3ccc4c(cnn4C)c3)nn2-c2ccccc2)[C@H](c2ccc(F)c(F)c2)N1 [Compound I-8] | < 100 nM |

Same assay, conditions: human TrkA phosphorylation inhibition, ATP 500 μmol/L; read-out: IC50 value

| Compound | IC50 |
| --- | --- |
| COCCN1C[C@@H](NC(=O)Nc2c(C)c(-c3cnc(OC)c(C(=O)NC4CCOCC4)c3)nn2-c2ccccc2)[C@H](c2ccccc2)C1 (racemic) [Compound I-57] | 1 nM |
| COCCN1C[C@@H](NC(=O)Nc2cc(-c3cnc4c(cnn4C)c3)nn2C)[C@H](c2ccc(F)c(F)c2)C1 [Compound I-167] | 28 nM |
| COCCN1C[C@@H](NC(=O)Nc2c(C)c(-c3ccc(N=S(C)(C)=O)nc3)nn2-c2ccccc2)[C@H](c2ccc(F)c(F)c2)C1 [Compound I-151] | 1.5 nM |
